Test: xn = mol fraction of the nth substance listed
Conditions: for surface tension liquid-gas: Maximal bubble pressure; for mass density: 100 kPa, Liquid, Vibrating tube method

CCn1cc[n+](CCOC)c1.O=S(=O)([O-])C(F)(F)F + CCO
Conditions | mass density [kg/m3] | surface tension liquid-gas [mN/m]
288.15 K, x1 = 0.0996 | 965.057 | 23.1
288.15 K, x1 = 0.1999 | 1071.98 | 24.2
288.15 K, x1 = 0.2996 | 1144.79 | 25.6
288.15 K, x1 = 0.3984 | 1196.95 | 27.1
288.15 K, x1 = 0.4991 | 1237.58 | 28.7
288.15 K, x1 = 0.6026 | 1270.25 | 30.5
288.15 K, x1 = 0.6991 | 1295.01 | 31.8
288.15 K, x1 = 0.797 | 1315.78 | 33.4
288.15 K, x1 = 0.8995 | 1333.85 | 34.9
288.15 K, x1 = 1 | 1348.94 | 36.3
293.15 K, x1 = 0.0996 | 960.722 | 22.6
293.15 K, x1 = 0.1999 | 1067.62 | 23.8
293.15 K, x1 = 0.2996 | 1140.44 | 25.2
293.15 K, x1 = 0.3984 | 1192.61 | 26.7
293.15 K, x1 = 0.4991 | 1233.26 | 28.3
293.15 K, x1 = 0.6026 | 1265.94 | 30.1
293.15 K, x1 = 0.6991 | 1290.72 | 31.4
293.15 K, x1 = 0.797 | 1311.49 | 33.1
293.15 K, x1 = 0.8995 | 1329.57 | 34.7
293.15 K, x1 = 1 | 1344.66 | 36.1
298.15 K, x1 = 0.0996 | 956.38 | 22.1
298.15 K, x1 = 0.1999 | 1063.27 | 23.3
298.15 K, x1 = 0.2996 | 1136.09 | 24.8
298.15 K, x1 = 0.3984 | 1188.29 | 26.3
298.15 K, x1 = 0.4991 | 1228.95 | 27.9
298.15 K, x1 = 0.6026 | 1261.65 | 29.7
298.15 K, x1 = 0.6991 | 1286.44 | 31.1
298.15 K, x1 = 0.797 | 1307.22 | 32.8
298.15 K, x1 = 0.8995 | 1325.31 | 34.4
298.15 K, x1 = 1 | 1340.41 | 35.8
303.15 K, x1 = 0.0996 | 952.028 | 21.6
303.15 K, x1 = 0.1999 | 1058.92 | 22.8
303.15 K, x1 = 0.2996 | 1131.76 | 24.4
303.15 K, x1 = 0.3984 | 1183.97 | 25.8
303.15 K, x1 = 0.4991 | 1224.66 | 27.5
303.15 K, x1 = 0.6026 | 1257.38 | 29.3
303.15 K, x1 = 0.6991 | 1282.19 | 30.7
303.15 K, x1 = 0.797 | 1302.98 | 32.5
303.15 K, x1 = 0.8995 | 1321.08 | 34.1
303.15 K, x1 = 1 | 1336.17 | 35.5
308.15 K, x1 = 0.0996 | 947.665 | 21.2
308.15 K, x1 = 0.1999 | 1054.56 | 22.3
308.15 K, x1 = 0.2996 | 1127.43 | 23.9
308.15 K, x1 = 0.3984 | 1179.66 | 25.4
308.15 K, x1 = 0.4991 | 1220.38 | 27.1
308.15 K, x1 = 0.6026 | 1253.12 | 28.9
308.15 K, x1 = 0.6991 | 1277.95 | 30.3
308.15 K, x1 = 0.797 | 1298.75 | 32
308.15 K, x1 = 0.8995 | 1316.86 | 33.8
308.15 K, x1 = 1 | 1331.96 | 35.3
313.15 K, x1 = 0.0996 | 943.285 | 20.8
313.15 K, x1 = 0.1999 | 1050.2 | 21.8
313.15 K, x1 = 0.2996 | 1123.1 | 23.5
313.15 K, x1 = 0.3984 | 1175.37 | 25
313.15 K, x1 = 0.4991 | 1216.11 | 26.7
313.15 K, x1 = 0.6026 | 1248.89 | 28.6
313.15 K, x1 = 0.6991 | 1273.73 | 30
313.15 K, x1 = 0.797 | 1294.54 | 31.8
313.15 K, x1 = 0.8995 | 1312.66 | 33.5
313.15 K, x1 = 1 | 1327.77 | 35.1
318.15 K, x1 = 0.0996 | 938.889 | 20.3
318.15 K, x1 = 0.1999 | 1045.85 | 21.4
318.15 K, x1 = 0.2996 | 1118.78 | 23
318.15 K, x1 = 0.3984 | 1171.08 | 24.6
318.15 K, x1 = 0.4991 | 1211.87 | 26.3
318.15 K, x1 = 0.6026 | 1244.66 | 28.2
318.15 K, x1 = 0.6991 | 1269.52 | 29.6
318.15 K, x1 = 0.797 | 1290.35 | 31.5
318.15 K, x1 = 0.8995 | 1308.47 | 33.2
318.15 K, x1 = 1 | 1323.6 | 34.9

— the NIST ThermoML archive (doi:10.1016/j.tca.2019.178383)
